Test results as given in patent publication US20080064665A1, “Combination approaches to cancer treatment” (priority 2006, published 2008).

Test system: H460 human lung cancer xenografts
Experiment: Growth delay and survival of H460 xenografts, PR-104, docetaxel and schedules thereof
Format: in vivo, CD-1 nude mice
Description: Specific pathogen-free homozygous nu/nu (CD-1) nu/nu [NIH-III] (Charles River Laboratories, Wilmington, Mass.) were provided by the Animal Resources Unit (University of Auckland) at 7 to 9 weeks of age. Mice were housed in groups of 4-7 in a temperature-controlled room (22±2° C.) with a 12-hour light/dark cycle and were fed ad libitum water and a standard rodent diet (Harlan Teklad diet 2018i). All animals were uniquely identifiable by ear tag number. All animal protocols were approved by the Animal Ethics Committee of the University of Auckland (AEC approval C337).
A single cell suspension was prepared by trypsinisation (1× Trypsin/EDTA) from spinner culture, counted, and suspended in ∝MEM to give required cell concentration, as listed below. Mice were inoculated (100 μL) at a single subcutaneous site (right flank) using a 1 ml syringe with a 26 gauge needle.
Seven days post-inoculation, tumors were measured three times per week until they reached the treatment size (mean diameter 5.8-8.2 mm; average 7.0 mm). Mean tumor diameter was averaged from the longest diameter (length) multiplied by the perpendicular measurement (width). Tumor diameters were estimated when mean diameter was below 5 mm, and measured with electronic callipers when ≧5 mm.
Tumor volume was calculated using the formula:
where L=length and w=width in mm of the carcinoma.
Excess compound was discarded.
Tumor bearing mice were assigned randomly to treatment groups when tumor diameter reached treatment size. Animals were rejected if xenografts show evidence of: (i) attachment to underlying muscle (due to risk of local invasion), (ii) signs of ulceration, or (iii) indolent tumor growth. Drug administration begins on the day of assignment. In general, 0.7-0.8 of the inoculated population is assigned to the experiment. Drug administration was undertaken as outlined above.
During and after treatment, tumor size and body weights were measured regularly. Animals were culled if (i) the average diameter of the tumor exceeds 15 mm (survival end-point), (ii) body weight loss exceeds 15% of pre-treatment value, (iii) there is evidence of prolonged or excessive morbidity, or (iv) tumor ulceration occurred. Each experiment was terminated at day 120 after treatment initiation.
Kaplan-Meier plots were constructed and median survival was calculated (TTE50). The statistical significance of any differences in overall survival between treatment groups and control was analysed by Log Rank P statistical test. The log-rank test was calculated using XLStat Life (Kovach Computing Services Ltd). The statistic significance in overall survival between each treatment group and control was determined by testing the null hypothesis that the survival curves are identical in the two populations.
The time for individual tumors to increase in volume by 4 fold relative to treatment day-1 (relative tumor volume×4−RTV^4) was recorded. The median RTV^4 is calculated for each group and the difference in RTV^4 between control and treatment groups is described as the Tumor Growth Delay (TGD) in days. RTV^4 values notmalise for any bias in tumor treatment volume on day-1. The RTV^4 of each treatment group is tested for statistical difference from control group by unpaired t-test and Mann Whitney U test (means and medians, respectively).
In circumstances where long-term controls (LTCs) occur, an RTV^4 value equal to the total duration of the experiment is assigned for the purposes of statistical analysis (usually 120 days). Where one or more LTC is present the median RTV^4 of each treatment group is tested for statistical difference from control group by Mann Whitney U test only. The statistical analysis was conducted at a p level of 0.05 (two-tailed). SigmaStat v3.10 was used for the statistical analysis of RTV^4 values. SigmaPlot v9 was used for all graph plots.
Weight loss nadirs (time independent maxima) were recorded for each treatment group.

[1] = H460 xenograft, PR-104 652 mg/kg, docetaxel 73 mg/kg, q2w×2

## CC(=O)O[C@@]12CO[C@@H]1C[C@H](O)[C@@]1(C)C(=O)[C@H](O)C3=C(C)[C@@H](OC(=O)[C@H](O)[C@@H](NC(=O)OC(C)(C)C)c4ccccc4)C[C@@](O)([C@@H](OC(=O)c4ccccc4)[C@H]21)C3(C)C [Docetaxel, (2R,3S)-N-carboxy-3-phenylisoserine, N-tert-butyl ester, 13-ester with 5β-20-epoxy-1,2α,4,7β,10β,13α-hexahydroxytax-11-en-9-one 4-acetate 2-benzoate, trihydrate, reference compound]
H460 xenograft, CD-1 nude mice, mean body weight loss nadir, PR-104 652 mg/kg, docetaxel 73 mg/kg, i.p., q2w×2, trihydrate
  Weight Loss Nadir (%): −4.2 ± 1.0%
H460 xenograft, female CD-1 nude mice, total dose PR-104 652 mg/kg, docetaxel 73 mg/kg, i.p., q2w×2
  Unscheduled deaths: 0
H460 xenograft, 120 day experiment, PR-104 652 mg/kg, docetaxel 73 mg/kg, q2w×2
  LTC (long term control, failed to reach end-point within duration of experiment): 0
[1]
  Median RTV^4 (median time for tumor volume to increase 4-fold): 8 days
  TGD (tumor growth delay; relative gain in median RTV^4 versus control): 0%
H460 xenograft, end-point >15 mm mean diameter, PR-104 652 mg/kg, docetaxel 73 mg/kg, q2w×2
  TTE50 (median time for tumor end-point to occur from day of treatment): 14 days
H460 xenograft, versus control (11 days), PR-104 652 mg/kg, docetaxel 73 mg/kg, q2w×2
  Gain TTE50 (improvement in median survival): 3 days
Tumor growth delay and survival end-points
  activity against H460 xenograft (in words): refractory
